Among the data in patent US10688093B2, “Methods, compositions, and uses of novel Fyn kinase inhibitors” (priority 2015, dated 2020) are IC50 values, retold here.

Chain of full-length recombinant human FYN A (P06241 whole entry): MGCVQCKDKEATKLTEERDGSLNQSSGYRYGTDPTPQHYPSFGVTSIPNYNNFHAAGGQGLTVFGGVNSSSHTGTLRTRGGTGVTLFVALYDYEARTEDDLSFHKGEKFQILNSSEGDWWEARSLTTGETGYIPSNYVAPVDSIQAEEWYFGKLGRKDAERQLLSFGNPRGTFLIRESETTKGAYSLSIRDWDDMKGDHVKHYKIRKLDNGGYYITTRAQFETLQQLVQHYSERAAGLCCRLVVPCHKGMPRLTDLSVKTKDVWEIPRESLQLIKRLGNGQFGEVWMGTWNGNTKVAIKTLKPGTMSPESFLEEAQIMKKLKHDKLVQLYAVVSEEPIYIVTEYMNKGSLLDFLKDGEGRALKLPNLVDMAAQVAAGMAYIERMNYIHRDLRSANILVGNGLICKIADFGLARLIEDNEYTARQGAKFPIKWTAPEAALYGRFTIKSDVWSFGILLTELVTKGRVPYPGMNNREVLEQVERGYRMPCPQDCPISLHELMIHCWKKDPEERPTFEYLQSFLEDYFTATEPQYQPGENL

One experiment deals with full-length recombinant human FYN A (Homo sapiens (Human), UniProt P06241). The experiment is described as follows: ADP-Glo Kinase Assay of FYN kinase inhibition. In kind it is biochemical. Conditions: primary screen, initial compounds. The method, boiled down:
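GST-tagged full-length FYN A (baculovirus, Sf9) at 3 pg preincubated 30 min RT with compound (10-point 3-fold series from 10 μM) in Tris pH 7.5/MgCl2 buffer. 12-mer tyrosine peptide plus 12.5 pmol ATP added, 90 min RT; ADP measured by ADP-Glo luminescence, IC50 from dose-response.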
As usually defined, the IC50 is the concentration that inhibits the measured activity by half. As to `CC(=O)c1cccc(-c2ccc3ncc(-c4cccc(C(C)=O)c4)n3n2)c1` [Compound 437, 1-[3-[3-(3-acetylphenyl)imidazo[1,2-b]pyridazin-6-yl]phenyl] ethanone], the IC50 amounted to 0.582 µM.

Consider `CNC(=O)c1cccc(-c2ccc3ncc(-c4cccc(C(C)=O)c4)n3n2)c1` [Compound 386, 3-[3-(3-acetylphenyl)imidazo[1,2-b]pyridazin-6-yl]-N-methyl-benzamide], for which the half-inhibitory concentration (IC50) was found to be 1.72 µM.

Turning to `NC(=O)c1ccc(-c2ccc3ncc(-c4cccs4)n3n2)cc1` [Compound 368, 4-[3-(2-thienyl)imidazo [1,2-b]pyridazin-6-yl]benzamide], the IC50 was 0.951 µM.

Consider `COc1cc(-c2cnc(N)c(-c3cccc(N)c3)c2)cc(OC)c1OC` [382_0005_0087, 3-(3-aminophenyl)-5-(3,4,5-trimethoxy-phenyl)pyridin-2-amine], for which the IC50 worked out at 2.97 µM.

Consider `COc1ncc(-c2ccnc3[nH]nc(-c4ccccc4OC)c23)cn1` [Compound 492, 3-(2-methoxyphenyl)-4-(2-methoxy-pyrimidin-5-yl)-1H-pyrazolo[3,4-b]pyridine], for which the IC50 is 6.43 µM.

For the compound `CC(=O)Nc1cccc(-c2cnc3sc(NCCc4ccncc4)nn23)c1` [Compound 557, N-[3-[2-[2-(4-pyridyl)ethyl-amino]imidazo [2,1-b][1,3,4]thiadiazol-5-yl]phenyl] acetamide], the IC50 stood at 1.32 µM.

Turning to `COc1cc(-c2cnc3ccc(NC4CCOCC4)nn23)cc(OC)c1OC` [229_0242_0087, N-tetrahydropyran-4-yl-3-(3,4,5-trimethoxy-phenyl) imidazo[1,2-b]pyridazin-6-amine], the IC50 amounted to 0.617 µM.

Consider `COc1ccccc1-c1n[nH]c2nccc(-c3cccc(C(C)=O)c3)c12` [Compound 533, 1-[3-[3-(2-methoxyphenyl)-1H-pyrazolo[3,4-b]pyridin-4-yl]phenyl] ethanone], for which the IC50 was determined as 6.6 µM.

For `COc1cc(-c2ccc3ncc(-c4cccc(CO)c4)n3n2)ccc1O` [Compound 324, 4-[3-[3-(hydroxymethyl)phenyl]imidazo [1,2-b]pyridazin-6-yl]-2-methoxy-phenol], the IC50 worked out at 0.153 µM.

As to `COc1ccccc1-c1ccc2ncc(-c3cccc(C(=O)NCCN(C)C)c3)n2n1` [Compound 469, N-(2-dimethylamino-ethyl)-3-[6-(2-methoxyphenyl)imidazo[1,2-b]pyridazin-3-yl]benzamide], the IC50 is 2.14 µM.

Turning to `Nc1cccc(-c2cnn3ccc(NCc4cccnc4)nc23)c1` [294_4003_0005, 3-(3-amino-phenyl)-N-(3-pyridylmethyl) pyrazolo[1,5-a]pyrimidin-5-amine], the IC50 stood at 2.51 µM.

As to `COc1cncc(-c2cnc3sc(NCc4ccccc4)nn23)c1` [Compound 585, N-benzyl-5-(5-methoxy-3-pyridyl)imidazo [2,1-b][1,3,4] thiadiazol-2-amine], the IC50 came out at 0.343 µM.

`Fc1cccc(-c2cnc3sc(NC4CCCCC4)nn23)c1` [Compound 578, N-cyclohexyl-5-(3-fluorophenyl) imidazo[2,1-d] [1,3,4]thiadiazol-2-amine]: the IC50 turned out to be 4.08 µM.

Regarding `c1ccc(-c2ccc3ncc(-c4ccc5c(c4)OCO5)n3n2)cc1` [Compound 439, 3-(1,3-benzodioxol-5-yl)-6-phenyl-imidazo[1,2-b]pyridazine], the half-inhibitory concentration (IC50) worked out at 3.09 µM.

In the case of `NC(=O)c1ccc(-c2cnc3ccc(Cc4ccccc4)nn23)cc1` [Compound 460, 4-(6-benzylimidazo [1,2-b]pyridazin-3-yl)benzamide], the IC50 turned out to be 0.711 µM.

On to `NC(=O)c1cccc(-c2cn3c(-c4cccc(O)c4)cnc3cn2)c1` [Compound 205, 3-[3-(3-hydroxyphenyl)imidazo[1,2-a]pyrazin-6-yl]benzamide], for which the half-inhibitory concentration (IC50) amounted to 1.58 µM.

In the case of `CCCNc1ccc2ncc(-c3cccc(C(C)=O)c3)n2n1` [229_0226_4145, 1-[3-[6-(propylamino)imidazo[1,2-b]pyridazin-3-yl]phenyl] ethanone], the IC50 worked out at 0.367 µM.

With `COCOc1ccc(-c2cc(-c3cccc(NC(C)=O)c3)cnc2N)cc1` [382_0341_0081], the IC50 came out at 1.55 µM.

Consider `Nc1ccc(-c2cn3c(-c4ccc(O)cc4)cnc3cn2)cn1` [388_0080_7905, 4-[6-(6-amino-3-pyridyl)imidazo [1,2-a]pyrazin-3-yl]phenol], for which the IC50 was determined as 1.93 µM.

In the case of `CN(C)CCCOc1ccc(-c2cn3c(-c4ccc(O)cc4)cnc3cn2)cn1` [Compound 248, 4-[6-[6-[3-(dimethylamino)propoxy]-3-pyridyl]imidazo [1,2-a]pyrazin-3-yl]phenol], the IC50 was 1.32 µM.

On to `COc1cc(-c2cnc3ccc(-c4cccc(F)c4)nn23)ccc1O` [Compound 472, 4-[6-(3-fluoro-phenyl)imidazo [1,2-b]pyridazin-3-yl]-2-methoxy-phenol], for which the IC50 came out at 0.281 µM.

In the case of `NC(=O)c1cccc(-c2ccc3ncc(-c4cccc(O)c4)n3n2)c1` [Compound 298, 3-[3-(3-hydroxyphenyl)imidazo[1,2-b]pyridazin-6-yl]benzamide], the IC50 stood at 0.311 µM.

Regarding `COc1cc(-c2cc(-c3cc4ccccc4s3)cnc2N)cc(OC)c1OC` [382_0087_0076, 5-(benzothiophen-2-yl)-3-(3,4,5-trimethoxyphenyl) pyridin-2-amine], the IC50 is 2.69 µM.

Take `COc1ccc(-c2cncc(-c3cccc(NC(C)=O)c3)n2)cc1` [035_0081_0280, N-[3-[6-(4-methoxyphenyl)pyrazin-2-yl]phenyl] acetamide]: the IC50 stood at 3.5 µM.

Consider `COc1ccc(-c2cnc(N)c(-c3cc(OC)c(OC)c(OC)c3)c2)cc1` [382_0087_0280, 5-(4-methoxyphenyl)-3-(3,4,5-trimethoxy-phenyl)pyridin-2-amine], for which the IC50 is 2.98 µM.

As for `c1ccc(Cn2c(-c3cccnc3)cc3cnc(Nc4ccncn4)cc32)cc1` [Compound 308, 1-benzyl-2-(3-pyridyl)-N-pyrimidin-4-yl-pyrrolo[3,2-c]pyridin-6-amine], the half-inhibitory concentration (IC50) stood at 6.85 µM.

`COc1ccc(-c2cnn3ccc(Nc4ccc(C(C)C)cc4)nc23)cc1` [294_6937_0280, N-(4-isopropylphenyl)-3-(4-methoxyphenyl) pyrazolo[1,5-a]pyrimidin-5-amine]: the IC50 worked out at 4.18 µM.

For the compound `NC(=O)c1ccc(-c2ccc3ncc(-c4ccccc4)n3n2)cc1` [Compound 350, 4-(3-phenylimidazo [1,2-b]pyridazin-6-yl)benzamide], the IC50 came to 2.14 µM.

Turning to `COc1ccccc1-c1n[nH]c2nccc(-c3ccc(C#N)cc3)c12` [Compound 521, 4-[3-(2-methoxyphenyl)-1H-pyrazolo[3,4-b]pyridin-4-yl]benzonitrile], the IC50 was determined as 1.58 µM.

Turning to `CC(=O)c1cccc(-c2cnc3cnc(-c4ccc(C(=O)NCCN(C)C)cc4)cn23)c1` [388_4145_0327, 4-[3-(3-acetylphenyl)imidazo[1,2-a]pyrazin-6-yl]-N-(2-dimethyl-aminoethyl) benzamide], the IC50 is 4.07 µM.

Turning to `CC(=O)c1cccc(-c2cnc3ccc(-c4cccc(N)c4)nn23)c1` [Compound 393, 1-[3-[6-(3-aminophenyl)imidazo[1,2-b]pyridazin-3-yl]phenyl] ethanone], the IC50 was 1.12 µM.

For the compound `COc1cc(-c2cc(-c3ccccc3)cnc2N)cc(OC)c1OC` [382_0087_0061, 5-phenyl-3-(3,4,5-trimethoxy-phenyl)pyridin-2-amine], the IC50 amounted to 0.893 µM.

For the compound `NC(=O)c1ccc(-c2ccnc3[nH]nc(-c4ccc(Cl)cc4)c23)cc1` [Compound 510, 4-[3-(4-chlorophenyl)-1H-pyrazolo[3,4-b]pyridin-4-yl]benzamide], the IC50 is 5.71 µM.

`Oc1cccc(-c2cnc3cnc(-c4ccccc4)cn23)c1` [Compound 204, 3-(6-phenylimidazo [1,2-a]pyrazin-3-yl)phenol]: the IC50 was found to be 6.55 µM.

For the compound `Cn1cc(-c2ccc3ncc(-c4ccncc4)n3n2)cn1` [Compound 447, 6-(1-methylpyrazol-4-yl)-3-(4-pyridyl)imidazo [1,2-b]pyridazine], the IC50 was found to be 30 µM.

For the compound `OCc1ccc(-c2cnc3ccc(NCc4cccs4)nn23)cc1` [229_0146_0285, [4-[6-(2-thienylmethyl-amino)imidazo[1,2-b]pyridazin-3-yl]phenyl] methanol], the IC50 is 1.09 µM.

In the case of `CC(=O)Nc1cccc(-c2cncc(-c3cccc(O)c3)n2)c1` [035_0081_0284, N-[3-[6-(3-hydroxyphenyl)pyrazin-2-yl]phenyl] acetamide], the IC50 turned out to be 3.88 µM.

Take `Oc1cccc(-c2cnc3ccc(-c4ccccc4)nn23)c1` [Compound 372, 3-(6-phenylimidazo [1,2-b]pyridazin-3-yl)phenol]: the IC50 came out at 0.894 µM.

As to `COc1cncc(-c2cnc3sc(NCC(C)C)nn23)c1` [Compound 270, N-isobutyl-5-(5-methoxy-3-pyridyl)imidazo [2,1-b] [1,3,4]thiadiazol-2-amine], the IC50 is 5.17 µM.

Staying with this experiment, now noted: secondary screen, re-synthesized and expanded compounds.
For the compound `CN(C)CCNC(=O)c1ccc(-c2cn3c(-c4ccc(Oc5ccccc5)cc4)cnc3cn2)cc1` [BF000334031, N-[2-(dimethyl-amino)ethyl]-4-[3-(4-phenoxy-phenyl)-imidazo[1,2-a]pyrazin-6-yl]-benzamide], the IC50 came to 0.222 µM.

As for `COc1cc(-c2cc(-c3ccc(N4CCN(C)CC4)cc3)cnc2N)cc(OC)c1OC` [BF000312520, 5-[4-(4-methyl-piperazin-1-yl)phenyl]-3-(3,4,5-trimethoxy-phenyl)-pyridin-2-amine], the IC50 worked out at 0.232 µM.

For the compound `CC(=O)Nc1cccc(-c2cnc3ccc(-c4cccc(CO)c4)nn23)c1` [BF000817329, N-[3-[6-[3-(hydroxy-methyl)-phenyl]-imidazo[1,2-b]pyridazin-3-yl]phenyl]-acetamide], the IC50 came out at 0.435 µM.

Turning to `COc1cc(-c2cnc3ccc(NC4CCOCC4)nn23)ccc1O` [BF000147168], the IC50 came out at 0.113 µM.

With `COc1cncc(-c2cnc3sc(NC4CCC(O)CC4)nn23)c1` (centres unmarked) [BF000802724, 4-[[5-(5-methoxy-3-pyridyl)-imidazo[2,1-b][1,3,4]-thiadiazol-2-yl]amino]-cyclohexanol], the IC50 stood at 0.301 µM.
